The structures appear in SMILES notation.

Common to all, as to format: biochemical
Experiment [1] has as its target GSK3B (GSK3 beta) (Homo sapiens, UniProt P49841). As to the kind of experiment: Z'-LYTE kinome assay at […] (ATP Km app), n = […]. Particulars: read-out: CRO15 1 μM.
The target in experiment [2] is T1, MELK (maternal embryonic leucine zipper kinase) (Homo sapiens, UniProt Q14680).
T1 construct: recombinant MELK protein
As to the kind of experiment: Z'-LYTE kinome assay at […] (ATP Km app); ADP-Glo dose-response with recombinant MELK; supported by biotin-CRO15 pull-down. In general terms: ADP-Glo first removes unused ATP, then detects ADP through luciferase.

In experiment [3] the target is AKT2 (PKB beta) (Homo sapiens, UniProt P31751). As to the kind of experiment: Z'-LYTE kinome assay at […], n = […]. The following applies: read-out: CRO15 1 μM.
Sequence of AKT2 (PKB beta) (P31751 whole entry): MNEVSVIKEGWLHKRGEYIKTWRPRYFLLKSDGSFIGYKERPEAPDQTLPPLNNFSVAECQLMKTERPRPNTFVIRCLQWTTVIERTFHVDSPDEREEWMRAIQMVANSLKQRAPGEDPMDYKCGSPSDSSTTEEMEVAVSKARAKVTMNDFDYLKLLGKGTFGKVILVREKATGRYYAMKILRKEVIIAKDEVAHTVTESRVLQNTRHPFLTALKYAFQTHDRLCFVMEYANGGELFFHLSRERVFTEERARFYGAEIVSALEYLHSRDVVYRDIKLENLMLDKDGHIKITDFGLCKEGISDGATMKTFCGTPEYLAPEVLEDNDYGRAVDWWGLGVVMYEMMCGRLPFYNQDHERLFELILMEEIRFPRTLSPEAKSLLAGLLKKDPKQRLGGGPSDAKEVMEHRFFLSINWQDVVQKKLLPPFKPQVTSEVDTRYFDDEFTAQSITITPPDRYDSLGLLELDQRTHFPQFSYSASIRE
The target of experiment [4] is MAPKAPK2 (Homo sapiens, UniProt P49137). As to the kind of experiment: Z'-LYTE kinome assay at […] (ATP Km app), n = […]. Particulars: read-out: CRO15 1 μM.
Sequence of MAPKAPK2 (P49137 whole entry): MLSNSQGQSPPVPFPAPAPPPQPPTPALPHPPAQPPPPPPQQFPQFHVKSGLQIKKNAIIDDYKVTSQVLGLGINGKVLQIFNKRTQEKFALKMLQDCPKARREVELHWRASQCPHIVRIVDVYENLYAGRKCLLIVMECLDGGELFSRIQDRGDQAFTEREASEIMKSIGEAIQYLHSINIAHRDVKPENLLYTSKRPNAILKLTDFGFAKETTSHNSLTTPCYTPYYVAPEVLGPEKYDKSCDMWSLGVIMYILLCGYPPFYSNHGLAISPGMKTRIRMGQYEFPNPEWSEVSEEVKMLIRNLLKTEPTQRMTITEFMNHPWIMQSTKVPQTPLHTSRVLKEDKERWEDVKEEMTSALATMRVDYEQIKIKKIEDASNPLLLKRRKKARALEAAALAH

Sequence of GSK3B (GSK3 beta) (P49841 whole entry): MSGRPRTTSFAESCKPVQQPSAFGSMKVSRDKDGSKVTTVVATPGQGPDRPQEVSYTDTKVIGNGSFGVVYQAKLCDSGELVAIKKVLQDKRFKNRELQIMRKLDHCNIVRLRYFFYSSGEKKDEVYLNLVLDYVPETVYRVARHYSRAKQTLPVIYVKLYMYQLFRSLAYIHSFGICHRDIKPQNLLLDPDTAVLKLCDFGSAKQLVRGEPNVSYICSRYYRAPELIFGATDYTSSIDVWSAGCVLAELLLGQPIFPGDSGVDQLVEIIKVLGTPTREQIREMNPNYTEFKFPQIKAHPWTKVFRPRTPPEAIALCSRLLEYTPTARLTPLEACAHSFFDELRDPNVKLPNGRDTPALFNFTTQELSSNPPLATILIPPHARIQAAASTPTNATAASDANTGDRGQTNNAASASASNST
T1 sequence (Q14680 whole entry): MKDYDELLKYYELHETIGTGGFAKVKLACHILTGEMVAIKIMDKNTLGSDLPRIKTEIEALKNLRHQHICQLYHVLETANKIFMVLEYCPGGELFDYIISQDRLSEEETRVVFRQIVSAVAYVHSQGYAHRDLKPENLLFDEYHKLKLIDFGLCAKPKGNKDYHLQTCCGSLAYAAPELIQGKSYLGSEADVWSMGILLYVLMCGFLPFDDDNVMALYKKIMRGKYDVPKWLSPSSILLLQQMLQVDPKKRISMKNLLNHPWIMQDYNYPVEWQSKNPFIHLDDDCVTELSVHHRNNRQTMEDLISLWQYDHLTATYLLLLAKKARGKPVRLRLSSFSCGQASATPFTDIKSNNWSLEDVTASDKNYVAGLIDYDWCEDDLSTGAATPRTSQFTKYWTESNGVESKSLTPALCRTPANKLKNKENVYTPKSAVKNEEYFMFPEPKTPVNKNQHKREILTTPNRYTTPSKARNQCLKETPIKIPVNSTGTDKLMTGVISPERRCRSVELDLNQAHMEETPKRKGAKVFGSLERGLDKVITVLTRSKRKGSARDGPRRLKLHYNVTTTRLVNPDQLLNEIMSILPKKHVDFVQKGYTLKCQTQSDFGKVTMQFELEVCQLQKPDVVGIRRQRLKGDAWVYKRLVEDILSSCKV

As to `Nc1nc(Nc2ccccc2SSc2ccccc2Nc2nc(N)nc(C(Cl)(Cl)Cl)n2)nc(C(Cl)(Cl)Cl)n1` [CRO15], the inhibition at 1 µM in experiment [1] came out at 72%; in experiment [2], 72%; in experiment [3], 74%; in experiment [4], 90%.

Values taken from PMC7801734, “Discovery of a new molecule inducing melanoma cell death: dual AMPK/MELK targeting for novel melanoma therapies” (Cell Death & Disease, 2021).
